# Key:
# [1] = tested on: HeLa cervical adenocarcinoma cells; experiment: Antiproliferative activity, SRB assay; assay type: cell-based, human
# Method: The antiproliferative activity against human A549 lung, IGROV-1 ovarian, and HeLa cervical cancer cell lines and MRC5 normal lung fibroblasts was determined by the sulforhodamine B (SRB) assay. […] IGROV-1 is known to be cisplatin-sensitive and subject to hypermutation.
# 2.8 Mammalian cell culture
# The human ovarian cancer cell line, IGROV-1; the human cervical cancer cell line, HeLa; the human […]; and the human non-cancerous lung fibroblast cell line, MRC5 were cultured in DMEM supplemented with 10% FBS and 100 units/mL of penicillin and 100 µg/mL of streptomycin (1x pen/strep). All cell lines were incubated at 310 K with 5% CO2 and 95% humidity for routine maintenance and during drug treatment.
# 2.9 Sulforhodamine (SRB) cytotoxicity assay
# Cells were seeded at 5 × 10^3 cells per well and incubated at 310 K for 48 h. Stock solutions (200 µM) of the complexes were prepared by dissolving the compound in 5% (v/v) DMSO followed by dilution with DMEM and serial dilutions with DMEM were prepared (0.1 µM-200 µM). The cells were exposed to the drug for 24 h. The drug was then removed, and cells were allowed to recover for 72 h, in drug-free media. Cell viability was then determined by the SRB colorimetric assay. The solubilised dye absorbance was analysed on a microplate reader (Thermo Scientific Multiskan FC with Scanit software 4.1) at 470 nm. Data were normalized using Microsoft Excel, and dose-response curves fitted using Origin 2016. The IC50 values
# [2] = tested on: IGROV-1 human ovarian cancer cells; experiment: Apoptosis assay, annexin V and PI, flow cytometry; assay type: cell-based; conditions: IGROV-1, 50 or 100 μM, 24 h
# Method: Apoptosis assays using annexin V and PI as markers were carried out to investigate possible modes of cell death. For the clinical drug cisplatin, apoptosis is the major mode of cell death. […] Other mechanisms of cell death such as ferroptosis could be investigated in future work. […]
# was aspirated, cells washed in ice-cold PBS and then stained with 0.2 mg/mL RNase, 0.05 mg/mL propidium iodide (PI) in PBS for 25 min in the dark and on ice. Excess dye was removed, and cells were re-suspended in PBS. Samples were analysed by flow cytometry using the BD FACSMelody™ Cell Sorter (R653880001) and data analysis on FlowJo™ v10 Software (BD Life […]
# IGROV-1 cells (1 x 106) were seeded in a 6-well plate and incubated for 24 h at 310 K. Stock solutions (200 µM) of the complexes were prepared by dissolving the compound in 5% (v/v) DMSO followed by dilution with DMEM and then diluted to desired concentrations. All complexes (50 µM and 100 µM) were added to the wells and incubated for 24 h. […] Samples were analysed by flow cytometry using the BD FACSMelody™ Cell Sorter (R653880001) and data analysis on FlowJo™ v10 Software (BD Life Sciences).9 […]
# Percentage of IGROV -1 cancer cells in non -apoptotic, apoptotic (early and late) or necrotic phases determined by flow cytometry after 24 h treatment with Os/Ru L -BSO and glycine complexes. […] Standard deviations calculated for N=3. […]
substance,measurement,setting,value
[(p-cymene)Os(L-BSO)Cl] [Os-LBSO],Activity toward HeLa cervical cancer cells,[1]; SRB,inactive
same,IC50,"[1]; SRB assay, 24 h treatment, 72 h recovery",> 200 µM
same,Apoptosis / mode of cell death vs untreated cells,[2],no significant differences
